# Experiments:
# [1] = tested on: BRCA1 mRNA expression in MDA-MB-231 cells; assay: qRT-PCR assay: BRCA1 mRNA expression in MDA-MB-231; assay type: cell-based, human; conditions: Homo sapiens, MDA-MB-231, Inhibition of BRCA1 mRNA expression in MDA-MB-231 cells; median; read-out: RTqPCR-MDA-MB-231, IC50, BRCA1 (median)
# Method in brief: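 First, cells are plated at 200,000 per well and allowed 24 h. Second, test substances are applied continuously for a further 24 h. Finally, RNA is isolated, 600 ng is converted to cDNA, and qPCR quantifies the transcript relative to GAPDH.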
# [2] = tested on: MDA-MB-231, human breast cancer cells; assay: Proliferation assay MDA-MB-231 (crystal violet, 4 days); assay type: cell-based; conditions: Homo sapiens, MDA-MB-231, 96 h, MDA-MB-231 cells, median, read-out: Prolif-MDA MB-231, IC50-[mol/l] (median)
# Method in brief: (§1)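 Growth was measured by crystal violet staining after cells had been treated with compounds (0.01-10 µmol/L, 0.1% DMSO) for 4 days, beginning 24 h after seeding. Values were normalized to a zero-point plate and to untreated controls, and IC50 values were derived by a four-parameter fit.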
# [3] = tested on: CAL-120, human breast adenocarcinoma cells; assay: Proliferation assay CAL-120 (crystal violet, 4 days); assay type: cell-based; conditions: Homo sapiens, CAL-120, 96 h, CAL-120 cells, median, read-out: Prolif-CAL-120, IC50-[mol/l] (median)
# Method in brief: as §1
# [4] = molecular target: T1, CYCLIN K (nuclear staining in CAL-120 cells) (Homo sapiens, UniProt O75909); assay: CYCLIN K nuclear protein level: immunofluorescence high content analysis (CAL-120); assay type: cell-based; conditions: 24 h, 50% reduction of nuclear CCNK staining intensity, median, read-out: CYCLIN K degradation IF, DC50-[mol/l] (median)
# T1 construct: endogenous in cells; host or cells: CAL-120 human breast cancer cells (DSMZ ACC 459)
# Method in brief: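 Readout is automated confocal image analysis of nuclear cyclin K immunofluorescence (Hoechst nuclei) after PFA fixation. Cells were CAL-120, exposed to compound dose-response 24 h at 37 °C; values are DC50 for halving nuclear CCNK signal relative to DMSO and control wells.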
# T1 sequence (O75909 whole entry): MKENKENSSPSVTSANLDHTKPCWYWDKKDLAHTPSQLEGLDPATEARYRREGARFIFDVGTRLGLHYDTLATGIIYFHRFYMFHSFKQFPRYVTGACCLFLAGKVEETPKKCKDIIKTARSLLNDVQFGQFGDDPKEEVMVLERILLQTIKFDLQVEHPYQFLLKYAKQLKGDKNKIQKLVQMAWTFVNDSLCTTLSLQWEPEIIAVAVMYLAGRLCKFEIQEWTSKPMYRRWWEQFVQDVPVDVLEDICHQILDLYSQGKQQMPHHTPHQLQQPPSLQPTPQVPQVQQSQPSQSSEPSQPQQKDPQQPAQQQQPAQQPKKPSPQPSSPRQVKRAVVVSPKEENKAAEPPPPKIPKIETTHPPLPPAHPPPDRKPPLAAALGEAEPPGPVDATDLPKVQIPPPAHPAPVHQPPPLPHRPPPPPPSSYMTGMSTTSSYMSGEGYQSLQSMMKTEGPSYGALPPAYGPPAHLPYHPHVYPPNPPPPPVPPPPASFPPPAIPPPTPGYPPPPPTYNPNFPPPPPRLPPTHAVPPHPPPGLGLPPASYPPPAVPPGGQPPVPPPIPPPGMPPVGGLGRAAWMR
# T1 sequence (Q9NYV4 whole entry partner): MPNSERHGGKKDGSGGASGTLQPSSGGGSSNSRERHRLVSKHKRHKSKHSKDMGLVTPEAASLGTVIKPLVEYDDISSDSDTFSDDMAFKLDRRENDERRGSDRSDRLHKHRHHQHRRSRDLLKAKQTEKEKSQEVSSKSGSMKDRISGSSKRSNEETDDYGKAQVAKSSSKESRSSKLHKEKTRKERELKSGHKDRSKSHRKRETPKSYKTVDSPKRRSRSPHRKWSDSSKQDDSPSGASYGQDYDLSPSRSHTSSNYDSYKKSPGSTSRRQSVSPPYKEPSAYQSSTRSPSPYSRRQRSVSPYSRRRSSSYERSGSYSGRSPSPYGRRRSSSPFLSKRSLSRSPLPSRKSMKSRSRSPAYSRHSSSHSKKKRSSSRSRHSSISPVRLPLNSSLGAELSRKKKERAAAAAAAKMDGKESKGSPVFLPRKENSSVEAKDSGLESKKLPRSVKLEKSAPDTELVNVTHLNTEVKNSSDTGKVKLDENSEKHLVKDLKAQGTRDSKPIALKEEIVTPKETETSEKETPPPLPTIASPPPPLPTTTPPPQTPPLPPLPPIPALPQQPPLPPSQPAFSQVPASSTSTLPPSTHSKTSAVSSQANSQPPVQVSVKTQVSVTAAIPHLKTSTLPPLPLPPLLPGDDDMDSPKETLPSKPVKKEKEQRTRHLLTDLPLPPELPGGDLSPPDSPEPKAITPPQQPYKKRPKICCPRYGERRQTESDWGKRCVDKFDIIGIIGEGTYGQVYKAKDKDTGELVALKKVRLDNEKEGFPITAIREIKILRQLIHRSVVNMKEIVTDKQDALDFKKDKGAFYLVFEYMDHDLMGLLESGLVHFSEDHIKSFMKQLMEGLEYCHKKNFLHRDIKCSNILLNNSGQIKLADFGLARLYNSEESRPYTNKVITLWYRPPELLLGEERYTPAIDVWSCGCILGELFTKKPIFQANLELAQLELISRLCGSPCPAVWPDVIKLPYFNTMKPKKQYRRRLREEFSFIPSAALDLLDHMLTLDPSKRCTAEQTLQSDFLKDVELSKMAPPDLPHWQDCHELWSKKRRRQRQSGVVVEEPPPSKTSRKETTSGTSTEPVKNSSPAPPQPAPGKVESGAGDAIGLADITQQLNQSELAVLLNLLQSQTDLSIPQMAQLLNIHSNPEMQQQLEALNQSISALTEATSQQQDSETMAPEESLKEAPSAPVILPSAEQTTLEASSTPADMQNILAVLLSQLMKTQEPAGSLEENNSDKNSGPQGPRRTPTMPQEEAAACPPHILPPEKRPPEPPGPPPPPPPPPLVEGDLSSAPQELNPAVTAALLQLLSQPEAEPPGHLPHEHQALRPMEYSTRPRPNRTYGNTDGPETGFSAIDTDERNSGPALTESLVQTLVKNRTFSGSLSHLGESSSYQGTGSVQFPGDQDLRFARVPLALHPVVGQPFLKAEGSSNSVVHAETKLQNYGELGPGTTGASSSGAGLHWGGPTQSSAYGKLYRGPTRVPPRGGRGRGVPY
IC50 [1] [nM],IC50 [2] [nM],IC50 [3] [nM],DC50 [4] [nM],SMILES
3.51,9.29,6.1,0.503,"Fc1ccc2[nH]c(CNc3nc(N4CCOCC4)nc4c(C5CC5)cnn34)nc2c1 [Example 181, 8-cyclopropyl-N-[(5-fluoro-1H-benzimidazol-2-yl)methyl]-2-(morpholin-4-yl)pyrazolo[1,5-a][1,3,5]triazin-4-amine]"
3.32,10.2,3.7,0.103,"Fc1cccc2[nH]c(CNc3nc(N4CCNCC4)nc4c(C5CC5)cnn34)nc12 [Example 182, 8-cyclopropyl-N-[(4-fluoro-1H-benzimidazol-2-yl)methyl]-2-(piperazin-1-yl)pyrazolo[1,5-a][1,3,5]triazin-4-amine]"
4.17,56,27.4,1.64,"Fc1cccc2[nH]c(CNc3nc(N4C[C@@H]5C[C@H]4CO5)nc4c(C5CC5)cnn34)nc12 [Example 183, 8-cyclopropyl-N-[(4-fluoro-1H-benzimidazol-2-yl)methyl]-2-[(1S,4S)-2-oxa-5-azabicyclo[2.2.1]heptan-5-yl]pyrazolo[1,5-a][1,3,5]triazin-4-amine]"
3.89,10.3,9.27,0.929,"OC[C@@H]1CCCCN1c1nc(NCc2nc3c(F)c(F)ccc3[nH]2)n2ncc(C3CC3)c2n1 [Example 184, [(2S)-1-(8-cyclopropyl-4-{[(4,5-difluoro-1H-benzimidazol-2-yl)methyl]amino}pyrazolo[1,5-a][1,3,5]triazin-2-yl)piperidin-2-yl]methanol]"
26.6,58.8,18.6,2,"Fc1ccc2[nH]c(CNc3nc(N4C[C@@H]5C[C@H]4CO5)nc4c(C5CC5)cnn34)nc2c1 [Example 185, 8-cyclopropyl-N-[(5-fluoro-1H-benzimidazol-2-yl)methyl]-2-[(1S,4S)-2-oxa-5-azabicyclo[2.2.1]heptan-5-yl]pyrazolo[1,5-a][1,3,5]triazin-4-amine]"
1.49,4.94,4.2,0.16,"C[C@@H]1CN(c2nc(NCc3nc4c(F)cccc4[nH]3)n3ncc(C4CC4)c3n2)C[C@H](C)N1 [Example 186, 8-cyclopropyl-2-[(3R,5S)-3,5-dimethylpiperazin-1-yl]-N-[(4-fluoro-1H-benzimidazol-2-yl)methyl]pyrazolo[1,5-a][1,3,5]triazin-4-amine]"
9.17,13.8,1.1,0.369,"Fc1cccc2[nH]c(CNc3nc(N4C[C@@H]5CCCN[C@@H]5C4)nc4c(C5CC5)cnn34)nc12 [Example 187, 8-cyclopropyl-N-[(4-fluoro-1H-benzimidazol-2-yl)methyl]-2-[(4aS,7aS)-octahydro-6H-pyrrolo[3,4-b]pyridin-6-yl]pyrazolo[1,5-a][1,3,5]triazin-4-amine]"
,110,135,34.1,"CN1CCCC2CN(c3nc(NCc4nc5ccccc5[nH]4)n4ncc(Br)c4n3)CC21 (stereo not shown) [Example 231, N-[(1H-benzimidazol-2-yl)methyl]-8-bromo-2-(1-methyloctahydro-6H-pyrrolo[3,4-b]pyridin-6-yl)pyrazolo[1,5-a][1,3,5]triazin-4-amine]"
,164,164,19.7,"CN(CCO)c1nc(NCc2nc3ccccc3[nH]2)n2ncc(Br)c2n1 [Example 237, 2-[(4-{[(1H-benzimidazol-2-yl)methyl]amino}-8-bromopyrazolo[1,5-a][1,3,5]triazin-2-yl)(methyl)amino]ethan-1-ol]"

# The remaining lines, values behind:
SMILES,IC50 [1] [nM],IC50 [2] [nM],IC50 [3] [nM],DC50 [4] [nM]
"Clc1cnn2c(NCc3nc4ccccc4[nH]3)nc(N3CCOCC3)nc12 [Example 15, N-[(1H-benzimidazol-2-yl)methyl]-8-chloro-2-(morpholin-4-yl)pyrazolo[1,5-a][1,3,5]triazin-4-amine]",10,44.6,29.5,4.51
"OC1CCN(c2nc(NCc3nc4ccccc4[nH]3)n3ncc(Br)c3n2)CC1 [Example 17, 1-(4-{[(1H-benzimidazol-2-yl)methyl]amino}-8-bromopyrazolo[1,5-a][1,3,5]triazin-2-yl)piperidin-4-ol]",12,107,,4.63
"CN1CCN(c2nc(NCc3nc4ccccc4[nH]3)n3ncc(Br)c3n2)CC1 [Example 18, N-[(1H-benzimidazol-2-yl)methyl]-8-bromo-2-(4-methylpiperazin-1-yl)pyrazolo[1,5-a][1,3,5]triazin-4-amine]",11.4,31,32.4,1.39
"C[C@H]1CN(c2nc(NCc3nc4ccccc4[nH]3)n3ncc(Br)c3n2)CCN1 [Example 169, N-[(1H-benzimidazol-2-yl)methyl]-8-bromo-2-[(3S)-3-methylpiperazin-1-yl]pyrazolo[1,5-a][1,3,5]triazin-4-amine]",3.32,20.7,3.56,1.95
"C[C@@H]1CN(c2nc(NCc3nc4c(F)c(F)ccc4[nH]3)n3ncc(C4CC4)c3n2)C[C@H](C)N1 [Example 170, 8-cyclopropyl-N-[(4,5-difluoro-1H-benzimidazol-2-yl)methyl]-2-[(3R,5S)-3,5-dimethylpiperazin-1-yl]pyrazolo[1,5-a][1,3,5]triazin-4-amine]",0.419,2.25,1,0.415
"Fc1ccc2[nH]c(CNc3nc(N4C[C@@H]5CCCN[C@@H]5C4)nc4c(C5CC5)cnn34)nc2c1F [Example 171, 8-cyclopropyl-N-[(4,5-difluoro-1H-benzimidazol-2-yl)methyl]-2-[(4aS,7aS)-octahydro-6H-pyrrolo[3,4-b]pyridin-6-yl]pyrazolo[1,5-a][1,3,5]triazin-4-amine]",1.03,5.49,2.66,0.981
"Fc1ccc2[nH]c(CNc3nc(N4CCOCC4)nc4c(C5CC5)cnn34)nc2c1F [Example 172, 8-cyclopropyl-N-[(4,5-difluoro-1H-benzimidazol-2-yl)methyl]-2-(morpholin-4-yl)pyrazolo[1,5-a][1,3,5]triazin-4-amine]",0.626,5.35,2.43,0.894
"Fc1ccc2[nH]c(CNc3nc(N4C[C@@H]5C[C@H]4CO5)nc4c(C5CC5)cnn34)nc2c1F [Example 173, 8-cyclopropyl-N-[(4,5-difluoro-1H-benzimidazol-2-yl)methyl]-2-[(1S,4S)-2-oxa-5-azabicyclo[2.2.1]heptan-5-yl]pyrazolo[1,5-a][1,3,5]triazin-4-amine]",4.58,20.8,8.14,1.03
"Fc1ccc2[nH]c(CNc3nc(N4CCNCC4)nc4c(C5CC5)cnn34)nc2c1F [Example 174, 8-cyclopropyl-N-[(4,5-difluoro-1H-benzimidazol-2-yl)methyl]-2-(piperazin-1-yl)pyrazolo[1,5-a][1,3,5]triazin-4-amine]",0.872,2.19,1,0.0976
"C[C@@H]1CN(c2nc(NCc3nc4cc(F)ccc4[nH]3)n3ncc(C4CC4)c3n2)C[C@H](C)N1 [Example 175, 8-cyclopropyl-2-[(3R,5S)-3,5-dimethylpiperazin-1-yl]-N-[(5-fluoro-1H-benzimidazol-2-yl)methyl]pyrazolo[1,5-a][1,3,5]triazin-4-amine]",1.63,3.26,1.15,0.147
"Brc1cnn2c(NCc3nc4ccccc4[nH]3)nc(N3CCNC4(CC4)C3)nc12 [Example 176, N-[(1H-benzimidazol-2-yl)methyl]-8-bromo-2-(4,7-diazaspiro[2.5]octan-7-yl)pyrazolo[1,5-a][1,3,5]triazin-4-amine]",4.68,14.6,4.37,0.208
"CN1CC[C@H]2CN(c3nc(NCc4nc5ccccc5[nH]4)n4ncc(Br)c4n3)C[C@H]21 [Example 179, N-[(1H-benzimidazol-2-yl)methyl]-8-bromo-2-[(3aS,6aS)-1-methylhexahydropyrrolo[3,4-b]pyrrol-5 (1H)-yl]pyrazolo[1,5-a][1,3,5]triazin-4-amine]",21.7,74.8,16.7,1.37
"Fc1ccc2[nH]c(CNc3nc(N4C[C@@H]5CCCN[C@@H]5C4)nc4c(C5CC5)cnn34)nc2c1 [Example 180, 8-cyclopropyl-N-[(5-fluoro-1H-benzimidazol-2-yl)methyl]-2-[(4aS, 7aS)-octahydro-6H-pyrrolo[3,4-b]pyridin-6-yl]pyrazolo[1,5-a][1,3,5]triazin-4-amine]",12,13.9,1.27,0.859

# From US20230117034A1, “PYRAZOLOTRIAZINES” (Bayer Aktiengesellschaft, priority 2019, published 2023)
